Reference: patent US9040547B2, “Pyrrolopyrimidine and purine derivatives” (PFIZER INC., priority 2011, dated 2015)

Columns and labels:
Format in all cases: cell-based
[1] = test system: NIH3T3/EGFR_E746-A750_deletion; assay: Cell proliferation assay (CellTiter-Glo), NIH3T3/EGFR_E746-A750_deletion; settings: Mus musculus, NIH3T3, 120 h, 3T3 cell line, three to five days of compound treatment, read-out: 3T3 del IC50
Procedure: (§1) Cell proliferation was measured using the CellTiter-Glo® Luminescent Cell Viability Assay. The assay involves the addition of a single reagent (CellTiter-Glo® Reagent) directly to cells cultured in serum-supplemented medium. The assay uses this one-step addition to induce cell lysis and generate a luminescent signal proportional to the amount of ATP present which is directly proportional to the number of metabolically active cells present in culture. The following cell lines were evaluated in this assay: NIH3T3/EGFR_L858R, NIH3T3/EGFR_E746-A750_deletion, NIH3T3/EGFR L858R+T790M, NIH3T3/EGFR_E746-A750_deletion+T790M, PC-9, PC9-DRH, NCI-H1975, and NCI-H3255. NIH/3T3 parental cells, NCI-H1975, and NCI-H3255 were purchased from the American Type Culture Collection (Manassas, Va.), and PC-9 cells were obtained from Japan. All cells were cultured according to recommendations. NIH/3T3 cells were grown in DMEM (Invitrogen, Carlsbad, Calif.) supplemented with 10% newborn calf serum (Invitrogen), and NIH3T3/EGFR mutant cells were grown in complete media with 5 μg/mL puromycin (Invitrogen). PC-9, NCI-H1975, and NCI-H3255 were grown in RPMI (Invitrogen, Carlsbad, Calif.) supplemented with 10% FBS (Sigma, St Louis, Mo.), and PC9-DRH cells were grown in complete media with 2 uM PF-00299804. Plasmids (pLPCX) with various EGFR constructs were made by GenScript (Piscataway, N.J.), and stable pools of NIH/3T3 cells expressing these constructs were made at Pfizer La Jolla. PC9-DRH cells were generated at Pfizer La Jolla by exposing cells to increasing concentrations of PF-00299804. Cells were plated in complete culture media (3000-5000 cells/well, 50 μl/well) on the bottom of white clear-bottom tissue culture treated microtiter plates (#3610, Corning Inc, Corning, N.Y.) and allowed to adhere overnight at 37° C., 5% CO2. The following day, compound dilution plates were prepared in 96 well clear V-bottom 0.5 mL polypropylene block plates (#3956, Corning, Inc). All cell lines were not evaluated for each compound. Each compound evaluated was prepared as a DMSO stock solution (10 mM). Compounds were tested in duplicate on each plate, with an 11-point serial dilution curve (1:3 dilution). Compound treatment (50 μl) was added from the compound dilution plate to the cell plate. The highest compound concentration was 1 or 10 μM (final), with a 0.3% final DMSO (#D-5879, Sigma, St Louis, Mo.) concentration. Plates were then incubated at 37° C., 5% CO2. After three to five days of compound treatment, CellTiter-Glo® Reagent (#G7573, Promega, Madison, Wis.) was prepared in one of two ways. If thawing a frozen aliquot of CellTiter-Glo® Reagent, the aliquot was thawed and equilibrated to room temperature prior to use while keeping it protected from light. Alternatively, new bottles of CellTiter-Glo® Buffer and CellTiter-Glo® Substrate were thawed and equilibrated to room temperature prior to use. CellTiter-Glo® Buffer (100 mL) was transferred into the amber bottle containing CellTiter-Glo® Substrate to reconstitute the lyophilized enzyme/substrate mixture, forming the CellTiter-Glo® Reagent. The reconstituted reagent was mixed by gently inverting the contents to obtain a homogeneous solution, and went into solution easily in less than one minute. Any unused reconstituted CellTiter-Glo® Reagent was immediately aliquoted and frozen at −20° C., protected from light. Cell plates were equilibrated at room temperature for approximately 30 minutes. An equivolume amount of CellTiter-Glo® Reagent (100 μL) was added to each well. Plates were mixed for two minutes on an orbital shaker to induce cell lysis, and then allowed to incubate at room temperature for 10 minutes to stabilize the luminescent signal. Luminescence was recorded using the PerkinElmer EnVision Excite Multilabel Reader used for endpoint reading for Luminescence detection (Waltham, Mass.). Data were analyzed using a four-parameter fit in Microsoft Excel. […]

NIH3T3/EGFR L858R+T790M = assay: Cell proliferation assay (CellTiter-Glo), NIH3T3/EGFR L858R+T790M; settings: Mus musculus, NIH3T3, 120 h, 3T3 cell line, three to five days of compound treatment, read-out: 3T3 L858R_T790M IC50
EGFR L858R+T790M = EGFR L858R+T790M (Homo sapiens, UniProt P00533, L858R/T790M); assay: pEGFR Y1068 ELISA assay, NIH3T3/EGFR_L858R+T790M cells; settings: 3T3 cell line, 2 hrs compound treatment; read-out: pEGFRY1068 ELISA3T3T790M—L858R IC50;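 also: sandwich ELISA of EGFR phosphorylated at Tyr1068 in lysates of stably transfected NIH/3T3 cells, 11-point threefold dilution series run in duplicate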
NIH3T3/EGFR_L858R = assay: Cell proliferation assay (CellTiter-Glo), NIH3T3/EGFR_L858R; settings: Mus musculus, NIH3T3, 120 h, 3T3 cell line, three to five days of compound treatment, read-out: 3T3 L858R IC50
Procedure: as §1

EGFR Del (PC9) = target: T1, EGFR Del (PC9) (Homo sapiens, UniProt P00533, DEL746-750); assay: EGFR ELISA, PC9 Del cells; settings: read-out: EGFR_ELISA9E PC9 Del IC50;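 also: cellular EGFR autophosphorylation at Tyr1068 quantified by sandwich ELISA of cell lysates after 2 h compound exposure at 37 °C, 11-point threefold dilution series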
T1 construct: endogenous in cells; host or cells: PC-9

[2] = test system: NIH3T3/EGFR_E746-A750_deletion+T790M; assay: Cell proliferation assay (CellTiter-Glo), NIH3T3/EGFR_E746-A750_deletion+T790M; settings: Mus musculus, NIH3T3, 120 h, 3T3 cell line, three to five days of compound treatment, read-out: 3T3 del_T790M IC50
Procedure: as §1

[3] = target: T2, EGFR wildtype, endogenous (Homo sapiens, UniProt P00533); assay: pEGFR Y1068 ELISA assay, A549 cells; settings: full serum media, stimulated 10 min with EGF (40 ng/mL), read-out: pEGFRY1068 ELISAA549 IC50;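 also: sandwich ELISA of phospho-EGFR Tyr1068 in cell lysates, cells exposed to compound for 2 h before EGF stimulation, 11-point threefold dilution series run in duplicate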
T2 construct: A549 (EGFR wildtype, endogenous); host or cells: A549

EGFR E746-A750 deletion = EGFR E746-A750 deletion (Homo sapiens, UniProt P00533, DEL746-750); assay: pEGFR Y1068 ELISA assay, NIH3T3/EGFR_E746-A750 deletion cells; settings: 3T3 Del cells, 2 hrs compound treatment; read-out: ELISA7E 3T3 Del IC50;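 also: sandwich ELISA on cell lysates detecting phospho-EGFR at Tyr1068, compounds run as 11-point threefold dilution series in duplicate, IC50 from inhibition of this phosphorylation signal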
EGFR L858R = EGFR L858R (Homo sapiens, UniProt P00533, L858R); assay: pEGFR Y1068 ELISA assay, NIH3T3/EGFR_L858R cells; settings: 3T3 cell line, 2 hrs compound treatment; read-out: pEGFRY1068 ELISA3T3 L858R IC50;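 also: sandwich ELISA of phospho-EGFR Tyr1068 in lysates of stably transfected NIH/3T3 pools after 2 h compound exposure at 37 °C, 11-point threefold dilution series run in duplicate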
EGFR L858R, endogenous = target: T3, EGFR L858R, endogenous (Homo sapiens, UniProt P00533, L858R); assay: pEGFR Y1068 ELISA assay, NCI-H3255 cells; settings: value marked (H3255): NCI-H3255 cells, 2 hrs compound treatment; read-out: pEGFRY1068 ELISA3T3 L858R IC50 (nM), (H3255)
T3 construct: NCI-H3255 (EGFR L858R, endogenous); endogenous in cells; host or cells: NCI-H3255

[4] = target: T4, EGFR L858R+T790M, endogenous (Homo sapiens, UniProt P00533, L858R/T790M); assay: pEGFR Y1068 ELISA assay, NCI-H1975 cells; settings: value marked (H1975): NCI-H1975 cells, 2 hrs compound treatment; read-out: pEGFRY1068 ELISA3T3T790M—L858R IC50 (nM), (H1975);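 also: sandwich ELISA of endogenous phospho-EGFR (Tyr1068) in lysates of treated cells, 11-point 1:3 serial dilution tested in duplicate per plate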
T4 construct: NCI-H1975 (EGFR L858R+T790M, endogenous); host or cells: NCI-H1975

Sequence of EGFR L858R (P00533 25-1210 L858R): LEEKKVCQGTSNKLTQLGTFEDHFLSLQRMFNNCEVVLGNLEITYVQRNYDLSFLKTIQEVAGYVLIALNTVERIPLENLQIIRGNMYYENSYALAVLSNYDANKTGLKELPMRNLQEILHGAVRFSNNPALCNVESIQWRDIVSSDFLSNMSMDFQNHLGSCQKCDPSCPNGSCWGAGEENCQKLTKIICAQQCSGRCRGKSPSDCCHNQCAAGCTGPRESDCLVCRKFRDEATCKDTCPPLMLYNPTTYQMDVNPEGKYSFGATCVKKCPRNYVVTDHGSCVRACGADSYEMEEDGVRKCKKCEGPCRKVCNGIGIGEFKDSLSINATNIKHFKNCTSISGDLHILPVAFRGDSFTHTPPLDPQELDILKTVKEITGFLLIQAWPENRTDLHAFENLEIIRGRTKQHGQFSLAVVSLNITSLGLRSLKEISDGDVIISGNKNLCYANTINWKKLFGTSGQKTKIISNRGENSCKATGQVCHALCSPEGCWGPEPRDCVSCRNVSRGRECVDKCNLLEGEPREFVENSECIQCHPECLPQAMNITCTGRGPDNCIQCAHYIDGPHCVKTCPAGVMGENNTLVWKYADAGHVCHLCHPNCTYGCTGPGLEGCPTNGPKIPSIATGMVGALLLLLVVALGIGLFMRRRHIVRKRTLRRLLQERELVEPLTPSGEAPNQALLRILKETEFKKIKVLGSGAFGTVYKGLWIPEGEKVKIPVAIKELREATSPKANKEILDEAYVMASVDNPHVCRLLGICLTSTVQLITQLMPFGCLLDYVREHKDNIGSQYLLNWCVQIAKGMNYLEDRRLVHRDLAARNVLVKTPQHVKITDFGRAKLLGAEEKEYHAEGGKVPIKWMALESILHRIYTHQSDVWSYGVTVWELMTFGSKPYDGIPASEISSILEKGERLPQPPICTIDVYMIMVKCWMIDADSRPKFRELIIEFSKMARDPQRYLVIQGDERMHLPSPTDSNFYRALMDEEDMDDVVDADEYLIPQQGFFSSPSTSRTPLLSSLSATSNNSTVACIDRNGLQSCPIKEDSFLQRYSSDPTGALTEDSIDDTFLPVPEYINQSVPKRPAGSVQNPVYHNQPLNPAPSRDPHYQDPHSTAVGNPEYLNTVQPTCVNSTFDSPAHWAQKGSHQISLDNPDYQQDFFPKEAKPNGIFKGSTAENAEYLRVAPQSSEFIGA
T3 sequence (P00533 25-1210 L858R): as above
T2 sequence (P00533 25-1210): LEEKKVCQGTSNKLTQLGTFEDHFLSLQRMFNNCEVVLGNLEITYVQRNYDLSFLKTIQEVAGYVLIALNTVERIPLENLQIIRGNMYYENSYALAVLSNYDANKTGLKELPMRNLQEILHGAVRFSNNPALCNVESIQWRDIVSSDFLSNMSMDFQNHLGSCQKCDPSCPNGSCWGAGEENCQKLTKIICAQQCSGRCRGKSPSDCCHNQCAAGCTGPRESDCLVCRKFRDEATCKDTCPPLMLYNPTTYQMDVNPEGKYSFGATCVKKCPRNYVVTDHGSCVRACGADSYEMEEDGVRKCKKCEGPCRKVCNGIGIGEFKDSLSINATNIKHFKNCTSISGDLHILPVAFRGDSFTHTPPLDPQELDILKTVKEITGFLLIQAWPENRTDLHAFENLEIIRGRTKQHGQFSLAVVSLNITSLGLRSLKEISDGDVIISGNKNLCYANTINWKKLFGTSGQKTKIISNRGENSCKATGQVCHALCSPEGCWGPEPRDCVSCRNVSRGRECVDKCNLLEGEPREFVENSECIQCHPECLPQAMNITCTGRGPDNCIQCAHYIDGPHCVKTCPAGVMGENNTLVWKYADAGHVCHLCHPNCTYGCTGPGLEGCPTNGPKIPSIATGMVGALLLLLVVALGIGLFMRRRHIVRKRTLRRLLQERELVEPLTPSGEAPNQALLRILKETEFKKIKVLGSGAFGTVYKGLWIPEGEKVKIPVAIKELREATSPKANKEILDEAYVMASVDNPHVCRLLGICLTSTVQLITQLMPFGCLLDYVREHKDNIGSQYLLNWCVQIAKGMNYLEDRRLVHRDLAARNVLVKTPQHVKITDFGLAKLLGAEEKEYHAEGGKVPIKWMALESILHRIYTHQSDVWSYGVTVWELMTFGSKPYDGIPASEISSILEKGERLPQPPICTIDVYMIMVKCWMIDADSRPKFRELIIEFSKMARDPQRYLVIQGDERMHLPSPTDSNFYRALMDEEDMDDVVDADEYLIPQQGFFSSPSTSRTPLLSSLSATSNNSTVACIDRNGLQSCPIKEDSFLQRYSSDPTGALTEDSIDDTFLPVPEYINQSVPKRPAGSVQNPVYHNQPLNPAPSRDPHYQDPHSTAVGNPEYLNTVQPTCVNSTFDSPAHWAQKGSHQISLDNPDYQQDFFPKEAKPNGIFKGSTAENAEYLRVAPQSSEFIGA
Sequence of EGFR L858R+T790M (P00533 25-1210 T790M/L858R): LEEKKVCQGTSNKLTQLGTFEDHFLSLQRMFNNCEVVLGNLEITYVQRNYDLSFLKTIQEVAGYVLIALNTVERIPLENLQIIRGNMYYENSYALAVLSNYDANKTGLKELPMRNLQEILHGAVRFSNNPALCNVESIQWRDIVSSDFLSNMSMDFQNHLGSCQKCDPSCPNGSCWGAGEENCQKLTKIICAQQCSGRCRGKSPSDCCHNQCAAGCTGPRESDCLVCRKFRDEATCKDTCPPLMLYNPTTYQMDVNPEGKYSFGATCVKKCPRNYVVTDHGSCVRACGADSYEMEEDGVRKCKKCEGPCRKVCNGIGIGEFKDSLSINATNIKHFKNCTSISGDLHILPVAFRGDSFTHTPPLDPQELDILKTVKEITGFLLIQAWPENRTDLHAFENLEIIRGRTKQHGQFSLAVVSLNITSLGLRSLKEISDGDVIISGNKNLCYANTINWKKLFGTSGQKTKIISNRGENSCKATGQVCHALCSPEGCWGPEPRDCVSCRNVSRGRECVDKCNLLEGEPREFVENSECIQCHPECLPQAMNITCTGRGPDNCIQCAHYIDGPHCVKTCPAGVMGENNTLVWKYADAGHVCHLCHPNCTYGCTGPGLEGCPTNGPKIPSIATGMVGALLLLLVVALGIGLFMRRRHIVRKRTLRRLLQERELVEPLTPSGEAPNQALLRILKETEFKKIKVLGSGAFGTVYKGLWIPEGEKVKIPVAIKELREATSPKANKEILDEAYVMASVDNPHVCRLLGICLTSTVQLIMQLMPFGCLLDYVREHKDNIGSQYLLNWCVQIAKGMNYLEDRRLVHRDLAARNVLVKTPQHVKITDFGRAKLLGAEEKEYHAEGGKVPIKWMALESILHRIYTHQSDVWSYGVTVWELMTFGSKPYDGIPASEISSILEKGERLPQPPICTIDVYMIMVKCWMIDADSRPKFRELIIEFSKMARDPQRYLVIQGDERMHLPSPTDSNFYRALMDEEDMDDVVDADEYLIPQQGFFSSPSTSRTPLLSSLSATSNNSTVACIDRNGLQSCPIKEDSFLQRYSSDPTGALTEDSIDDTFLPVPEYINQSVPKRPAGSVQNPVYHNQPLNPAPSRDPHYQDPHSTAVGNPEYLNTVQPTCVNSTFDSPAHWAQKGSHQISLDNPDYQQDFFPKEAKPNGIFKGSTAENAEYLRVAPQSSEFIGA

SMILES	IC50 (EGFR L858R+T790M) [µM]	IC50 (EGFR Del (PC9)) [µM]	IC50 [3] [µM]	IC50 (EGFR E746-A750 deletion) [µM]	IC50 (EGFR L858R) [µM]	IC50 (EGFR L858R, endogenous) [nM]	IC50 [4] [nM]	IC50 [1] [µM]	IC50 (NIH3T3/EGFR L858R+T790M) [µM]	IC50 (NIH3T3/EGFR_L858R) [µM]	IC50 [2] [µM]
C=CC(=O)N(C)[C@@H]1CCCN(c2nc(Nc3cnn(C)c3)nc3[nH]cc(Cl)c23)C1 [Example 94]	–	4.43	–	–	–	608	385	–	–	–	–
C=CC(=O)N1C[C@@H]2CN(c3nc(Nc4cnn(C)c4)nc4[nH]cc(Cl)c34)C[C@]2(O)C1 [Example 84]	–	5.24	–	–	–	1100	175	–	–	–	–
C=CC(=O)N1C[C@H](COc2nc(Nc3cnn(CC#N)c3)nc3[nH]cc(Cl)c23)[C@@H](OC)C1 [Example 93]	–	0.383	–	–	–	26	31	–	–	–	–
C=CC(=O)N1C[C@@H]2CN(c3nc(Nc4cnn(C)c4)nc4[nH]cc(Cl)c34)C[C@]2(OC)C1 (single isomer, unassigned) [Example 88]	–	0.63	–	–	–	41	34	–	–	–	–
C=CC(=O)N[C@H]1CC[C@@H](Oc2nc(Nc3cnn(C)c3)nc3[nH]cc(Cl)c23)C1 [Example 77]	–	–	> 10	–	5.19	–	301	> 1	0.1 to 1	> 1	0.1 to 1
C=CC(=O)N1CCOC2(CCN(c3nc(Nc4cnn(C)c4)nc4[nH]cc(Cl)c34)C2)C1 (single isomer, unassigned) [Example 112]	–	–	> 10	–	–	241	63	–	–	–	–
C=CC(=O)N[C@@H]1CCCN(c2nc(Nc3cnn(C)c3)nc3[nH]cc(Cl)c23)C1 [Example 11, N-[(3R)-1-{5-chloro-2-[(1-methyl-1H-pyrazol-4-yl)amino]-7H-pyrrolo[2,3-d]pyrimidin-4-yl}piperidin-3-yl]prop-2-enamide]	–	–	> 10	–	8.86	–	525	> 1	0.1 to 1	> 1	0.1 to 1

Second part, led by results:

IC50 (EGFR L858R+T790M) [µM]	IC50 (EGFR Del (PC9)) [µM]	IC50 [3] [µM]	IC50 (EGFR E746-A750 deletion) [µM]	IC50 (EGFR L858R) [µM]	IC50 (EGFR L858R, endogenous) [nM]	IC50 [4] [nM]	SMILES	IC50 [1] [µM]	IC50 (NIH3T3/EGFR L858R+T790M) [µM]	IC50 (NIH3T3/EGFR_L858R) [µM]	IC50 [2] [µM]
0.01	0.558	> 10	0.237	0.218	–	–	C=CC(=O)N(C)[C@H]1C[C@H](Oc2nc(Nc3cn(C)nc3C)nc3[nH]cc(Cl)c23)C1 [Example 62]	0.01 to 0.1	0.01 to 0.1	0.01 to 0.1	< 0.01
–	4.25	> 10	–	–	101	153	C=CC(=O)N1C[C@H](COc2nc(Nc3cnn(CC(C)O)c3)nc3[nH]cc(Cl)c23)[C@@H](OC)C1 (single isomer, unassigned) [Example 100]	–	–	–	–
–	0.953	> 10	–	–	85	73	C=CC(=O)N1C[C@H](COc2nc(Nc3cn(CC#N)nc3C)nc3[nH]cc(Cl)c23)[C@@H](OC)C1 [Example 115]	–	–	–	–
0.067	0.044	> 10	0.025	0.105	–	–	C=CC(=O)Nc1cccc(Oc2nc(Nc3cnn(C)c3)nc3[nH]cc(C#N)c23)c1 [Example 57]	< 0.01	0.01 to 0.1	> 1	0.01 to 0.1
0.007	0.352	> 10	0.081	0.164	–	–	C=CC(=O)N(C)[C@H]1C[C@H](Oc2nc(Nc3cnn(C)c3)nc3[nH]cc(Cl)c23)C1 [Example 108]	0.01 to 0.1	0.01 to 0.1	0.1 to 1	< 0.01
0.012	0.592	> 10	0.269	0.113	–	–	C=CC(=O)N1C[C@H](COc2nc(Nc3cn(C)nc3OC)nc3[nH]cc(Cl)c23)[C@@H](OC)C1 [Example 70]	0.1 to 1	0.1 to 1	0.1 to 1	0.01 to 0.1
0.221	0.982	> 10	1.32	1.81	–	–	C=CC(=O)N[C@H]1C[C@@H](Oc2nc(Nc3cnn(C)c3)nc3[nH]cc(C#N)c23)C1 (single isomer, unassigned) [Example 5, N-[cis-3-({5-cyano-2-[(1-methyl-1H-pyrazol-4-yl)amino]-7H-pyrrolo[2,3-d]pyrimidin-4-yl}oxy)cyclobutyl]prop-2-enamide]	0.1 to 1	0.1 to 1	> 1	0.1 to 1
–	–	> 10	0.056	–	–	146	C=CC(=O)Nc1cccc(Oc2nc(Nc3cc[nH]n3)nc3[nH]ccc23)c1 [Example 27]	–	–	–	–
0.013	–	7.85	0.033	0.202	–	–	C=CC(=O)Nc1cccc(Oc2nc(Nc3ccn(C)n3)nc3[nH]cc(Cl)c23)c1 [Example 21]	0.01 to 0.1	0.01 to 0.1	> 1	< 0.01
0.003	–	2.17	0.012	0.026	–	–	C=CC(=O)Nc1cc(F)cc(Oc2nc(Nc3cnn([C@@H]4CCN(C)C4)c3)nc3[nH]ccc23)c1 [Example 107]	< 0.01	0.01 to 0.1	0.01 to 0.1	< 0.01
